Measurements taken from PubChem BioAssay AID1963853 (Molecular Pharmacology Branch, DTP, NCI, 2024).

Tested on: 266295-075-R-J1-PDC spheroid viability
Test: Anticancer human tumor 266295-075-R-J1-PDC patient-derived head and neck squamous carcinoma cell line growth inhibition [POLQ]
Conditions: spheroids with HUVEC and MSC; for IC50: curve of first compound; for viability, T/C: stronger effect = lower value
Method in brief: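 Three-cell-type spheroids modelling solid tumor plus stroma served as the readout system; POL inhibitors were tested individually and in combination, concentration ranges set by clinical Cmax where known.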

[1] = second compound 0.0316 µM, first compound 0.0316 µM
[2] = second compound 0.0316 µM, first compound 0.1 µM
[3] = second compound 0.0316 µM, first compound 0.316 µM
[4] = second compound 0.0316 µM, first compound 1 µM
[5] = second compound 0.0316 µM, first compound 3.16 µM
[6] = second compound 0.0316 µM, first compound 10 µM
[7] = second compound 0.1 µM, first compound 0.0316 µM
[8] = second compound 0.1 µM, first compound 0.1 µM
[9] = second compound 0.1 µM, first compound 0.316 µM
[10] = second compound 0.1 µM, first compound 1 µM
[11] = second compound 0.1 µM, first compound 3.16 µM
[12] = second compound 0.1 µM, first compound 10 µM
[13] = second compound 0.316 µM, first compound 0.0316 µM
[14] = second compound 0.316 µM, first compound 0.1 µM
[15] = second compound 0.316 µM, first compound 0.316 µM
[16] = second compound 0.316 µM, first compound 1 µM
[17] = second compound 0.316 µM, first compound 3.16 µM
[18] = second compound 0.316 µM, first compound 10 µM
[19] = second compound 1 µM, first compound 0.0316 µM
[20] = second compound 1 µM, first compound 0.1 µM
[21] = second compound 1 µM, first compound 0.316 µM
[22] = second compound 1 µM, first compound 1 µM
[23] = second compound 1 µM, first compound 3.16 µM
[24] = second compound 1 µM, first compound 10 µM
[25] = second compound 3.16 µM, first compound 0.0316 µM
[26] = second compound 3.16 µM, first compound 0.1 µM
[27] = second compound 3.16 µM, first compound 0.316 µM
[28] = second compound 3.16 µM, first compound 1 µM
[29] = second compound 3.16 µM, first compound 3.16 µM
[30] = second compound 3.16 µM, first compound 10 µM
[31] = second compound 10 µM, first compound 0.0316 µM
[32] = second compound 10 µM, first compound 0.1 µM
[33] = second compound 10 µM, first compound 0.316 µM
[34] = second compound 10 µM, first compound 1 µM
[35] = second compound 10 µM, first compound 3.16 µM
[36] = second compound 10 µM, first compound 10 µM
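Further: spheroids exposed to compounds for seven days before readout.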

C#Cc1c(F)ccc2cc(O)cc(-c3ncc4c(N5CC6CCC(C5)N6)nc(OCC56CCCN5CC(F)C6)nc4c3F)c12 (stereo not drawn) + Cc1cccc(N(C)C(=O)C2C(O)CCN2c2nc(C)cc(C(F)(F)F)c2C#N)c1
IC50 (second compound 0.0316 µM): > 10 µM | IC50 (second compound 0.1 µM): > 10 µM | IC50 (second compound 0.316 µM): > 10 µM | IC50 (second compound 1 µM): > 10 µM | IC50 (second compound 3.16 µM): 6.48 µM | IC50 (second compound 10 µM): > 10 µM | viability, T/C [1]: 91.9% | viability, T/C [2]: 76.7% | viability, T/C [3]: 82.8% | viability, T/C [4]: 66.8% | viability, T/C [5]: 66.7% | viability, T/C [6]: 57% | viability, T/C [7]: 111% | viability, T/C [8]: 94.1% | viability, T/C [9]: 70% | viability, T/C [10]: 62.8% | viability, T/C [11]: 59.6% | viability, T/C [12]: 55.7% | viability, T/C [13]: 102% | viability, T/C [14]: 87.4% | viability, T/C [15]: 78.6% | viability, T/C [16]: 70.6% | viability, T/C [17]: 70.9% | viability, T/C [18]: 58.8% | viability, T/C [19]: 90.3% | viability, T/C [20]: 93.1% | viability, T/C [21]: 75.5% | viability, T/C [22]: 67.3% | viability, T/C [23]: 67.8% | viability, T/C [24]: 57.8% | viability, T/C [25]: 154% | viability, T/C [26]: 83.7% | viability, T/C [27]: 76.9% | viability, T/C [28]: 65.1% | viability, T/C [29]: 66.6% | viability, T/C [30]: 55.6% | viability, T/C [31]: 84.5% | viability, T/C [32]: 91.9% | viability, T/C [33]: 82.9% | viability, T/C [34]: 63.2% | viability, T/C [35]: 65.7% | viability, T/C [36]: 85%

CCc1cc2c(N3CCc4c(cc(Cn5ccnc5)cc4-c4cn(C)nc4C(F)(F)F)C3=O)cc(C)nc2c(OC)n1 + Cc1cccc(N(C)C(=O)C2C(O)CCN2c2nc(C)cc(C(F)(F)F)c2C#N)c1
IC50 (second compound 0.0316 µM): > 10 µM | IC50 (second compound 0.1 µM): > 10 µM | IC50 (second compound 0.316 µM): > 10 µM | IC50 (second compound 1 µM): > 10 µM | IC50 (second compound 3.16 µM): > 10 µM | IC50 (second compound 10 µM): > 10 µM | viability, T/C [1]: 72.8% | viability, T/C [2]: 89% | viability, T/C [3]: 81.6% | viability, T/C [4]: 111% | viability, T/C [5]: 130% | viability, T/C [6]: 120% | viability, T/C [7]: 102% | viability, T/C [8]: 90.4% | viability, T/C [9]: 101% | viability, T/C [10]: 110% | viability, T/C [11]: 89.3% | viability, T/C [12]: 114% | viability, T/C [13]: 97.7% | viability, T/C [14]: 105% | viability, T/C [15]: 102% | viability, T/C [16]: 122% | viability, T/C [17]: 131% | viability, T/C [18]: 123% | viability, T/C [19]: 87.1% | viability, T/C [20]: 88.4% | viability, T/C [21]: 102% | viability, T/C [22]: 98.5% | viability, T/C [23]: 135% | viability, T/C [24]: 121% | viability, T/C [25]: 83.7% | viability, T/C [26]: 102% | viability, T/C [27]: 117% | viability, T/C [28]: 109% | viability, T/C [29]: 138% | viability, T/C [30]: 137% | viability, T/C [31]: 101% | viability, T/C [32]: 93.2% | viability, T/C [33]: 111% | viability, T/C [34]: 127% | viability, T/C [35]: 122% | viability, T/C [36]: 145%

CCc1cc2c(N3CCc4c(cc(Cn5ccnc5)cc4-c4cn(C)nc4C(F)(F)F)C3=O)ccnc2c(OC)n1 + Cc1cccc(N(C)C(=O)C2C(O)CCN2c2nc(C)cc(C(F)(F)F)c2C#N)c1
IC50 (second compound 0.0316 µM): > 10 µM | IC50 (second compound 0.1 µM): > 10 µM | IC50 (second compound 0.316 µM): > 10 µM | IC50 (second compound 1 µM): > 10 µM | IC50 (second compound 3.16 µM): > 10 µM | IC50 (second compound 10 µM): > 10 µM | viability, T/C [1]: 90.4% | viability, T/C [2]: 101% | viability, T/C [3]: 78.6% | viability, T/C [4]: 115% | viability, T/C [5]: 138% | viability, T/C [6]: 126% | viability, T/C [7]: 98.6% | viability, T/C [8]: 90% | viability, T/C [9]: 105% | viability, T/C [10]: 99.6% | viability, T/C [11]: 119% | viability, T/C [12]: 124% | viability, T/C [13]: 119% | viability, T/C [14]: 102% | viability, T/C [15]: 80.3% | viability, T/C [16]: 92.8% | viability, T/C [17]: 130% | viability, T/C [18]: 104% | viability, T/C [19]: 86.7% | viability, T/C [20]: 105% | viability, T/C [21]: 90.6% | viability, T/C [22]: 110% | viability, T/C [23]: 141% | viability, T/C [24]: 104% | viability, T/C [25]: 107% | viability, T/C [26]: 82.1% | viability, T/C [27]: 104% | viability, T/C [28]: 103% | viability, T/C [29]: 122% | viability, T/C [30]: 118% | viability, T/C [31]: 97.8% | viability, T/C [32]: 90.6% | viability, T/C [33]: 110% | viability, T/C [34]: 132% | viability, T/C [35]: 127% | viability, T/C [36]: 144%

COc1cc2cc(C(=O)CCC(=O)O)sc2cc1OC + Cc1cccc(N(C)C(=O)C2C(O)CCN2c2nc(C)cc(C(F)(F)F)c2C#N)c1
IC50 (second compound 0.0316 µM): > 10 µM | IC50 (second compound 0.1 µM): > 10 µM | IC50 (second compound 0.316 µM): > 10 µM | IC50 (second compound 1 µM): > 10 µM | IC50 (second compound 3.16 µM): > 10 µM | IC50 (second compound 10 µM): > 10 µM | viability, T/C [1]: 118% | viability, T/C [2]: 112% | viability, T/C [3]: 90% | viability, T/C [4]: 117% | viability, T/C [5]: 95.7% | viability, T/C [6]: 96% | viability, T/C [7]: 113% | viability, T/C [8]: 103% | viability, T/C [9]: 82.9% | viability, T/C [10]: 111% | viability, T/C [11]: 115% | viability, T/C [12]: 115% | viability, T/C [13]: 134% | viability, T/C [14]: 112% | viability, T/C [15]: 92.6% | viability, T/C [16]: 114% | viability, T/C [17]: 87% | viability, T/C [18]: 84.8% | viability, T/C [19]: 106% | viability, T/C [20]: 87.2% | viability, T/C [21]: 126% | viability, T/C [22]: 104% | viability, T/C [23]: 110% | viability, T/C [24]: 80.3% | viability, T/C [25]: 101% | viability, T/C [26]: 112% | viability, T/C [27]: 116% | viability, T/C [28]: 109% | viability, T/C [29]: 98.2% | viability, T/C [30]: 91.3% | viability, T/C [31]: 97.2% | viability, T/C [32]: 109% | viability, T/C [33]: 102% | viability, T/C [34]: 104% | viability, T/C [35]: 109% | viability, T/C [36]: 89.2%
